Experiments:
[1] = target: PI3K-delta (Homo sapiens (Human), UniProt O00329); assay: biochemical; conditions: PI3Kdelta IC50, HTRF biochemical assay; compound form screened given
Text: HTRF PI3K Biochemical Assay to Measure Intrinsic Potency of Compound Inhibitors
The PI3-Kinase biochemical assays were developed to measure the intrinsic potency and compound dependent inhibition of the alpha, beta, delta, and gamma PI3K isoform enzymes. This assay was developed and further optimized from a kit produced by Upstate (Millipore catalog #33-047) and has been configured for HTS and SAR screening. Briefly, this procedure exploits the exquisite specificity and high affinity binding of enzyme reaction substrate phosphatidyl(3,4,5)triphosphate (PIP3) to the GRP1 pleckstrin homology (PH) domain to generate the signal. In the absence of PIP3, an HTRF (Homogeneous Time-Resolved Fluorescence energy transfer) complex is formed consisting of europium (Eu)-labeled anti-GST, GST tagged GRP1-PH domain, biotin-PIP3 and streptavidin conjugated APC. The native PIP3 produced by PI3-Kinase activity disrupts in a competitive manner the biotin-PIP3 from the PH domain, resulting in the loss of energy transfer (HTRF complex) and a decrease in the signal. The format of this assay is the same for all 4 isoforms of PI3K; the differences lie in the concentration of enzyme used to achieve robust assay window. The alpha, beta, and delta assays are run at 0.5, 1, and 0.3 nM enzymes and the gamma assay is run at 5 nM enzyme. The ATP concentration is 100 uM in the alpha, beta, and delta assays and 50 uM ATP in the gamma assay. All reactions are run at 5 uM PIP2.
Compounds are serially diluted (3-fold in 100% DMSO) across a 384-well polypropylene source plated from column 3 to column 12 and column 13 to column 22, to yield 10 concentration dose response for each test compound. Columns 1, 2, 23 and 24 contain either only DMSO or pharmacological known control inhibitor.
The PI3-Kinase biochemical assay was optimized using the HTRF kit provided by Upstate (Millipore). The assay kit contains six reagents: 1) 4× Reaction Buffer; 2) native PIP2 (substrate); 3) Stop (EDTA); 4) Detection Mix A (Streptavidin-APC); 5) Detection Mix B (Eu-labeled Anti-GST plus GST-tagged PH-domain); 6) Detection Mix C.
PI3Kinase Reaction Buffer is prepared by dilution the stock 1:4 with de-ionized water. […] Enzyme addition and compound pre-incubation are initiated by the addition of 1.25 ul of PI3K (at twice its final concentration) in the 1× reaction buffer to all wells using a BioRaptor. Plates are incubated at room temperature for 15 minutes. Reactions are initiated by addition of 1.25 ul of 2× substrate solution (PIP2 and ATP in 1× reaction buffer) using BioRaptor. Plates are incubated in humidified chamber at room temperature for one hour. Reactions are quenched by addition of 0.625 uL of stop solution to all wells using the BioRaptor. The quenched reactions are then processed to detect product formation by adding 0.625 uL of Detection Solution to all wells using the BioRaptor (Detection mix C, Detection Mix A, and Detection Mix B combined together in an 18:1:1 ratio prepared 2 hours prior to use).
The loss of the HTRF signal is due to the displacement of biotinylated-PIP3 from the PH domain by the PI3K-dependent conversion of PIP2 to PIP3. […] All data were calculated using the ratio of acceptor (APC) to donor (Europium) fluorescence in each well of the assay plate. […] An IC50 was then calculated fitting the % inhibition data to the equation: % inhibition=min+(Max−min)/1+([inhibitor]/IC50)^n) where min is the % inhibition […], max is the signal in DMSO control, and n is the Hill slope.

[2] = target: PI3K-alpha (Homo sapiens (Human), UniProt P42336); assay: HTRF PI3K biochemical assay, alpha isoform; conditions: ratio PI3K-alpha IC50 value/PI3K-delta IC50 value
PI3K-alpha, sequence (P42336 whole entry, looked up, canonical isoform): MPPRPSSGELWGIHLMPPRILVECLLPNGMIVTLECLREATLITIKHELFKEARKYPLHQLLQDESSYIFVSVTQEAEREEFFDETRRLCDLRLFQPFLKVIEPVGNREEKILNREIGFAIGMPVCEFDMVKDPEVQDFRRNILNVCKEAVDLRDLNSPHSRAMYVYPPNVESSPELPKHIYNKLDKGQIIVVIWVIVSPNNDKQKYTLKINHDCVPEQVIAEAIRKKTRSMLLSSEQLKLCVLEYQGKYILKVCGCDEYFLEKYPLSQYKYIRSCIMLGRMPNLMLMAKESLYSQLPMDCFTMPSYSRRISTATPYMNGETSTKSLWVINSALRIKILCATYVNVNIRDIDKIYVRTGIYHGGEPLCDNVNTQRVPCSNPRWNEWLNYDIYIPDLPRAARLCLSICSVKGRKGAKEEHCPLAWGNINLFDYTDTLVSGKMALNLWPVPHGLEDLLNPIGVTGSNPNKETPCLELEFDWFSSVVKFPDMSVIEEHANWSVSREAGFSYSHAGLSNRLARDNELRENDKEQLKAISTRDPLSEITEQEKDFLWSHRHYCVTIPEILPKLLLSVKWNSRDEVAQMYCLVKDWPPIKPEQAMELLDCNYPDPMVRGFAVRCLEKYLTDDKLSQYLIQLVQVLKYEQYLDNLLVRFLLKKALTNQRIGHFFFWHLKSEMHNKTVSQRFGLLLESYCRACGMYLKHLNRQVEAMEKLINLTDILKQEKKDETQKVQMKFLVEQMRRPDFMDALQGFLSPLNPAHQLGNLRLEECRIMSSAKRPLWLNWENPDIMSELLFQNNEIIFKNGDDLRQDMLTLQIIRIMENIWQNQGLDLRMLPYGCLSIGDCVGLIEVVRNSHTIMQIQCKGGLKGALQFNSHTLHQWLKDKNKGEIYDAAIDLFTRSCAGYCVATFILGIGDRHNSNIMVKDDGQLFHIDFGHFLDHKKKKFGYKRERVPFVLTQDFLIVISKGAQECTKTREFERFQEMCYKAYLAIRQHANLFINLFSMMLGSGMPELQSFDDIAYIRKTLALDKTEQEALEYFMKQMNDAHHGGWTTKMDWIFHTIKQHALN
PI3K-alpha, sequence (P27986 whole entry partner, looked up, canonical isoform): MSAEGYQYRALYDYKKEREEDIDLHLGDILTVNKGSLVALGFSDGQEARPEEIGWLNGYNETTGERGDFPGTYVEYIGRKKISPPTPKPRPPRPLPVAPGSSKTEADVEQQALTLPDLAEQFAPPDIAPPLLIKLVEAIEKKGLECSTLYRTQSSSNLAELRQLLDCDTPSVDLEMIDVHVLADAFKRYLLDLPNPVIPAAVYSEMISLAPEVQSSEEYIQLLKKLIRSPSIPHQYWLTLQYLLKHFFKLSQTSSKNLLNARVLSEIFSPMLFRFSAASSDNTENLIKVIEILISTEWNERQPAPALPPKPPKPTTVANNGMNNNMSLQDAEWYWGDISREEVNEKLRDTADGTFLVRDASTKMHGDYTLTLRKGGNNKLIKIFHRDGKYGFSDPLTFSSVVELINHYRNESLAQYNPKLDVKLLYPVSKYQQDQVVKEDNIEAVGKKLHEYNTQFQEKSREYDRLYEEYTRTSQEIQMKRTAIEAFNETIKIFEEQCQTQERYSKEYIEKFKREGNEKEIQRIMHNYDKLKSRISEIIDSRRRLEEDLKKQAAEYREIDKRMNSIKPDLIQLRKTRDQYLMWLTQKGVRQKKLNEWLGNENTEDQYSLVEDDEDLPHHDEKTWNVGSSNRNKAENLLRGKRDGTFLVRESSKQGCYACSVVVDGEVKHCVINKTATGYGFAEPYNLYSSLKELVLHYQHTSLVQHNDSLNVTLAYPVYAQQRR

PI3K-delta, sequence (O00329 whole entry, looked up): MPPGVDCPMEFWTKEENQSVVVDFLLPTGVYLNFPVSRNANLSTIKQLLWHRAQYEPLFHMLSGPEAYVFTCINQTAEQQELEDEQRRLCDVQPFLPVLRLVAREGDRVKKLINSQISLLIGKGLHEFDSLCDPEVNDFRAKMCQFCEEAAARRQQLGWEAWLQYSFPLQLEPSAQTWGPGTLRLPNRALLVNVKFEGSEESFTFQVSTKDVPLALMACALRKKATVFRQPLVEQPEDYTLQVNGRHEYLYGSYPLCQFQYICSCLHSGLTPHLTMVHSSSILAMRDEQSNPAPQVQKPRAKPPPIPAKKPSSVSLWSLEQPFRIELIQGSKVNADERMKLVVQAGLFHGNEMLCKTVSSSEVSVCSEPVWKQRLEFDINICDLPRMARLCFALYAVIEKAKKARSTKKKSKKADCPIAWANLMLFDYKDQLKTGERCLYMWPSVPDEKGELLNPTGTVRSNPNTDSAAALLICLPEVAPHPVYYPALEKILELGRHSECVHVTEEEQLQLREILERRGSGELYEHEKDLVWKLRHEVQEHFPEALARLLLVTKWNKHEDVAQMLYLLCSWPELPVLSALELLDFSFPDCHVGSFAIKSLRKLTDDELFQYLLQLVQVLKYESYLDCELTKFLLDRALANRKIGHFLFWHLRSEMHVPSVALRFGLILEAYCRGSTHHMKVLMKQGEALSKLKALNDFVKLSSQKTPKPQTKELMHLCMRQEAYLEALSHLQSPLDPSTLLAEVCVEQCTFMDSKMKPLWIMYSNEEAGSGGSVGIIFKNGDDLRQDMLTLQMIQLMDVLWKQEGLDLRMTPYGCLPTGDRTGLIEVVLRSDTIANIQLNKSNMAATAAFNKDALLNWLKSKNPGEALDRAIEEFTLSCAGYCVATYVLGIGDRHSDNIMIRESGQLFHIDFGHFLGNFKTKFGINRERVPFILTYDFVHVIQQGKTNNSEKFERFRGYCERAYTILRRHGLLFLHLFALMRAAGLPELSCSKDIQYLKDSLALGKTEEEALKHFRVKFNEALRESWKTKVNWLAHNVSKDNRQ
PI3K-delta, sequence (P27986 whole entry partner, looked up): as the sequence (P27986 whole entry partner, looked up, canonical isoform) above

Compound	IC50 [1]	Relative Selectivity versus PI3Kalpha [2]
CCn1c(-c2cnc(C)nc2)nc2c(O[C@@H]3CN(C(=O)C4CC4)CC3(C)C)ncnc21 (racemic) [Compound 3-62, racemic-6-{[1-(cyclopropylcarbonyl)-4,4-dimethylpyrrolidin-3-yl]oxy}-9-ethyl-8-(2-methylpyrimidin-5-yl)-9H-purine]	2.3 nM	>10
CCn1c(-c2cnc(C)nc2)nc2c(O[C@H]3CCN(C(=O)C4CC45CCCC5)C3)ncnc21 (single isomer, unassigned) [Compound 2-122, 9-ethyl-8-(2-methylpyrimidin-5-yl)-6-{[(3S)-1-((R or S)-spiro[2.4]hept-1-ylcarbonyl)pyrrolidin-3-yl]oxy}-9H-purine]	16 nM	>10
CCn1c(-c2cnc(C)nc2)nc2c(O[C@H]3CCN(C(=O)C4CC45CCCC5)C3)ncnc21 (single isomer, unassigned) [Compound 2-123, 9-ethyl-8-(2-methylpyrimidin-5-yl)-6-{[(3S)-1-((R or S)-spiro[2.4]hept-1-ylcarbonyl)pyrrolidin-3-yl]oxy}-9H-purine]	< 1 nM	>10
CCn1c(-c2cnc(C)nc2)nc2c(O[C@H]3CCN(C(=O)N4CCC4C)C3)ncnc21 (single isomer, unassigned) [Compound 5-15, 9-ethyl-6-({(3S)-1-[((2R or 2S)-methylazetidin-1-yl)carbonyl]pyrrolidin-3-yl}oxy)-8-(2-methylpyrimidin-5-yl)-9H-purine]	6.2 nM	>10
CCn1c(-c2cnc(C)nc2)nc2c(O[C@H]3CCN(C(=O)N4CCC4C)C3)ncnc21 (single isomer, unassigned) [Compound 5-16, 9-ethyl-6-({(3S)-1-[((2R or 2S)-methylazetidin-1-yl)carbonyl]pyrrolidin-3-yl}oxy)-8-(2-methylpyrimidin-5-yl)-9H-purine]	16 nM	>10
